# Assay results taken from the NIST ThermoML archive (doi:10.1021/je5001796).
# Numbers after ± are expanded uncertainties.
# Assay: xn = mol fraction of the nth substance listed
# Details: 101 kPa, Liquid, Vibrating tube method, x2 = 0.3333
structure (smiles),measurement,setting,value
NC(N)=O [urea] + C[N+](C)(C)CCO.[Cl-],mass density,293.15 K,1200.1 ± 0.4 kg/m3
same,mass density,303.15 K,1194.5 ± 0.4 kg/m3
same,mass density,313.15 K,1188.7 ± 0.4 kg/m3
same,mass density,323.15 K,1183.1 ± 0.4 kg/m3
same,mass density,333.15 K,1177.3 ± 0.4 kg/m3
same,mass density,343.15 K,1170.8 ± 0.4 kg/m3
same,mass density,353.15 K,1163.5 ± 0.4 kg/m3
same,mass density,363.15 K,1155.4 ± 0.4 kg/m3
